Assay results taken from US20140349396A1, “Compositions and Methods Relating to Clonal Progenitor Cells” (priority 2011, published 2014).

Test system: myoblasts
Assay: Culture of hES-derived clonal myoblasts with or without the TGFβ inhibitor
Assay type: cell-based, human
Details: removal of SB431542 together with switch from Matrigel to gelatin substrate (FIG. 11)
Description: FIG. 11 is a photomicrograph showing myoblasts grown on Matrigel® in the presence of a TGFβ inhibitor (SB431542)(top) and myoblasts switched to gelatin without the TGFβ inhibitor.

## NC(=O)c1ccc(-c2nc(-c3ccc4c(c3)OCO4)c(-c3ccccn3)[nH]2)cc1 [SB431542]
  proliferation of myoblasts: increased proliferation
